# Assay results as given in patent publication US7989462B2, “4-arylamin-or-4-heteroarylamino-quinazolines and analogs as activators of caspases and inducers of apoptosis and the use thereof” (Myrexis, Inc., priority 2003, dated 2011).
# System: T-47D
# Assay: Caspase cascade activation in T-47D solid tumor cells (fluorogenic N-(Ac-DEVD)-N'-ethoxycarbonyl-R110 substrate)
# Assay type: cell-based, Human
# Conditions: T-47D (24 hr); for EC50: Homo sapiens, T47D, read-out: Caspase Potency EC50; for Caspase Activity Ratio: ratio of net RFU of test compound to that of control samples
# Procedure: Human breast cancer cell lines T-47D and DLD-1 were grown according to media component mixtures designated by American Type Culture Collection+10% FCS (Invitrogen Corporation), in a 5% CO2-95% humidity incubator at 37° C. T-47D and DLD-1 cells were maintained at a cell density between 50 and 80% confluency at a cell density of 0.1 to 0.6×10^6 cells/mL. Cells were harvested at 600×g and resuspended at 0.65×10^6 cells/mL into appropriate media+10% FCS. An aliquot of 22.5 μL of cells was added to a well of a 384-well microtiter plate containing 2.5 μL of a 10% DMSO in RPMI-1640 media solution containing 0.16 to 100 μM of (2-chloro-quinazolin-4-yl)-(4-dimethylaminophenyl)-methylamine or other test compound (0.016 to 10 μM final). An aliquot of 22.5 μL of cells was added to a well of a 384-well microtiter plate containing 2.5 μL of a 10% DMSO in RPMI-1640 media solution without test compound as the control sample. […] After incubation, the samples were removed from the incubator and 25 μL of a solution containing 14 μM of N-(Ac-DEVD)-N′-ethoxycarbonyl-R110 fluorogenic substrate (Cytovia, Inc.; WO99/18856), 20% sucrose (Sigma), 20 mM DTT (Sigma), 200 mM NaCl (Sigma), 40 mM Na PIPES buffer pH 7.2 (Sigma), and 500 μg/mL lysolecithin (Calbiochem) was added. The samples were mixed by agitation and incubated at room temperature. Using a fluorescent plate reader (Model SPECTRAfluor Plus, Tecan), an initial reading (T=0) was made approximately 1-2 min after addition of the substrate solution, employing excitation at 485 nm and emission at 530 nm, to determine the background fluorescence of the control sample. After the 3 h incubation, the samples were read for fluorescence as above (T=3 h).
# The Relative Fluorescence Unit values (RFU) were used to calculate the sample readings as follows: RFU(T=3h)−Control RFU(T=0)=Net RFU(T=3h)
# The activity of caspase cascade activation was determined by the ratio of the net RFU value for (2-chloro-quinazolin-4-yl)-(4-dimethylaminophenyl)-methylamine or other test compounds to that of control samples. The EC50 (nM) was determined by a sigmoidal dose-response calculation (Prism 3.0, GraphPad Software Inc.).
EC50 [nM],Compound,Caspase Activity Ratio
47,"CC(=O)Nc1ccc(N(C)c2nc(C)nc3ccccc23)cc1 [Example 1, (4-Acetamido-phenyl)-(2-methyl-quinazolin-4-yl)-methylamine]",8.1
73,"COC(=O)Nc1ccc(N(C)c2nc(C)nc3ccccc23)cc1 [Example 4, (2-Methyl-quinazolin-4-yl)-(4-methoxycarbonylamino-phenyl)-methylamine]",8.5
32,"Cc1nc(N(C)c2ccc(NC(N)=O)cc2)c2ccccc2n1 [Example 5, (2-Methyl-quinazolin-4-yl)-(4-ureido-phenyl)-methylamine]",9.3
210,"CC(=O)N(C)c1ccc(N(C)c2nc(C)nc3ccccc23)cc1 [Example 6, (2-Methyl-quinazolin-4-yl)-(N-methyl-4-acetamido-phenyl)-methylamine]",9.2
18,"CNc1ccc(N(C)c2nc(C)nc3ccccc23)cc1 [Example 7, (2-Methyl-quinazolin-4-yl)-(4-methylamino-phenyl)-methylamine]",3.4
558,"COC(=O)N(C)c1ccc(N(C)c2nc(C)nc3ccccc23)cc1 [Example 8, (2-Methyl-quinazolin-4-yl)-[4-(N-methyl-methoxycarbonylamino)-phenyl]-methylamine]",8.0
33,"Cc1nc(N(C)c2ccc(N(C)C)cc2)c2cc(N)ccc2n1 [Example 12, (6-Amino-2-methyl-quinazolin-4-yl)-(4-dimethylaminophenyl)-methylamine]",3.8
4,"CN(C)c1ccc(N(C)c2nc(Cl)nc3ccccc23)cc1 [Example 13, (2-Chloro-quinazolin-4-yl)-(4-dimethylaminophenyl)-methylamine]",4.2
39,"CNc1nc(N(C)c2ccc(N(C)C)cc2)c2ccccc2n1 [Example 15, (2-Methylamino-quinazolin-4-yl)-(4-dimethylaminophenyl)-methylamine]",3.9
> 10000,"CSc1ccc(Nc2nc(C)nc3ccccc23)cc1 [Example 20, (4-Methylthio-phenyl)-(2-methyl-quinazolin-4-yl)-amine]",1.1
4,"CSc1ccc(N(C)c2nc(C)nc3ccccc23)cc1 [Example 21, (4-Methylthio-phenyl)-(2-methyl-quinazolin-4-yl)-methylamine]",7.5
2860,"Cc1nc(Nc2ccc(N(C)C)cc2)c2ccccc2n1 [Example 22, (4-Dimethylamino-phenyl)-(2-methyl-quinazolin-4-yl)-amine]",8.7
> 10000,"Cc1nc(N(C)c2ccc3c(c2)nnn3C)c2ccccc2n1 [Example 23, (1-Methyl-1H-benzotriazol-5-yl)-(2-methyl-quinazolin-4-yl)-methylamine]",1.1
> 10000,"COc1ccc(Nc2nc(C)nc3ccccc23)cc1OC [Example 24, (3,4-Dimethoxy-phenyl)-(2-methyl-quinazolin-4-yl)-amine]",1.3
9,"COc1ccc(N(C)c2nc(C)nc3ccccc23)cc1OC [Example 25, (3,4-Dimethoxy-phenyl)-(2-methyl-quinazolin-4-yl)-methylamine]",10.2
> 10000,"Cc1nc(Nc2ccc(N(C)C)nc2)c2ccccc2n1 [Example 26, (2-Dimethylamino-pyridine-5-yl)-(2-methyl-quinazolin-4-yl)-amine]",1.3
14,"Cc1nc(N(C)c2ccc(N(C)C)nc2)c2ccccc2n1 [Example 27, (2-Dimethylamino-pyridine-5-yl)-(2-methyl-quinazolin-4-yl)-methylamine]",9.0
> 10000,"COc1ccc(Nc2nc(C)nc3ccc([N+](=O)[O-])cc23)cc1OC [Example 34, (3,4-Dimethoxy-phenyl)-(2-methyl-6-nitro-quinazolin-4-yl)-amine]",1.1

# The next lines start with the compound.
Compound,EC50 [nM],Caspase Activity Ratio
"COc1c(Br)cc(N(C)c2nc(C)nc3cc([N+](=O)[O-])ccc23)cc1Br [Example 2, (3,5-Dibromo-4-methoxyphenyl)-(2-methyl-7-nitroquinazolin-4-yl)-methylamine]",> 10000,1.1
"COc1ccc(N(C)c2nc(NCc3ccccc3)nc3ccccc23)cc1 [Example 3, (2-Benzylamino-quinazolin-4-yl)-(4-methoxyphenyl)-methylamine]",75,8.2
COc1ccc(CNc2nc(N(C)c3ccc(OC)cc3)c3ccccc3n2)cc1 [Example 9],258,5.6
"Cc1nc(N(C)c2ccc(N(C)C)cc2)c2cc([N+](=O)[O-])ccc2n1 [Example 10, (2-Methyl-6-nitroquinazolin-4-yl)-(4-dimethylaminophenyl)-methylamine]",979,2.6
"COc1ccc(N(C)c2nc(Cl)nc3ccc([N+](=O)[O-])cc23)cc1 [Example 11, (2-Chloro-6-nitroquinazolin-4-yl)-(4-methoxyphenyl)-methylamine]",5080,4.0
"COc1ccc(N(C)c2nc(N(C)C)nc3ccc([N+](=O)[O-])cc23)cc1 [Example 14, (2-Dimethylamino-6-nitroquinazolin-4-yl)-(4-methoxyphenyl)-methylamine]",2360,4.2
"CC(=O)N(C)c1nc(N(C)c2ccc(N(C)C)cc2)c2ccccc2n1 [Example 16, [2-(N-Methyl-acetamido)-quinazolin-4-yl]-(4-dimethylaminophenyl)-methylamine]",14,2.4
"CNc1nc(N(C)c2ccc(OC)cc2)c2cc([N+](=O)[O-])ccc2n1 [Example 17, (2-Methylamino-6-nitroquinazolin-4-yl)-(4-methoxyphenyl)-methylamine]",619,3.7
"COc1ccc(N(C)c2nc(N(C)C)nc3ccc(N)cc23)cc1 [Example 18, (6-Amino-2-dimethylamino-quinazolin-4-yl)-(4-methoxyphenyl)-methylamine]",221,4.7
"CNc1nc(N(C)c2ccc(OC)cc2)c2cc(N)ccc2n1 [Example 19, (6-Amino-2-methylamino-quinazolin-4-yl)-(4-methoxyphenyl)-methylamine]",214,4.3
"COc1ccc(N(C)c2nc(N(C)C(C)=O)nc3ccccc23)cc1 [Example 28, (4-Methoxy-phenyl)-(2-N-methylacetamido-quinazolin-4-yl)-methylamine]",7,4.0
"COC(=O)N(C)c1nc(N(C)c2ccc(OC)cc2)c2ccccc2n1 [Example 29, (4-Methoxy-phenyl)-(2-N-methyl-methoxycarbonylamino-quinazolin-4-yl)-methylamine]",34,9.6
"COc1ccc(N(C)c2nc(C)nc3ccc(N(C)C)cc23)cc1 [Example 30, (6-Dimethylamino-2-methyl-quinazolin-4-yl)-(4-methoxy-phenyl)-methylamine]",382,6.4
"COc1ccc(N(C)c2nc(C)nc3ccc(NC(C)=O)cc23)cc1 [Example 31, (6-Acetamido-2-methyl-quinazolin-4-yl)-(4-methoxy-phenyl)-methylamine]",796,3.2
"COc1ccc(N(C)c2nc(NN)nc3ccccc23)cc1 [Example 32, (2-Hydrazinyl-quinazolin-4-yl)-(4-methoxy-phenyl)-methylamine]",68,7.4
"COC(=O)Nc1ccc2nc(C)nc(N(C)c3ccc(OC)cc3)c2c1 [Example 33, (6-methoxycarbonylamino-2-methyl-quinazolin-4-yl)-(4-methoxy-phenyl)-methylamine]",293,6.7
"COc1ccc(Nc2ncnc3ccccc23)cc1OC [Example 35, (3,4-Dimethoxy-phenyl)-(quinazolin-4-yl)-amine]",> 10000,1.0
"COc1ccc(N(C)c2nc(C)nc3ccc([N+](=O)[O-])cc23)cc1OC [Example 36, (3,4-Dimethoxy-phenyl)-(2-methyl-6-nitro-quinazolin-4-yl)-methylamine]",1870,4.0
